{"source": "patent US5506221A", "about": "“Contignasterol, and related 3-alpha hydroxy-6-alpha hydroxy-7-beta hydroxy-15-keto-14-beta steroids useful as anti-inflammatory and anti-thrombosis agents” (University of British Columbia, priority 1994, dated 1996)", "key": {"[1]": {"test_system": "rat mast cells", "settings": "induced by anti-IgE; cited from earlier work"}, "[2]": {"test_system": "platelets", "test": "platelet aggregation in response to collagen", "type": "cell-based", "from_the_text": "(§1) PAF is a local mediator of thrombosis. Similarly, collagen exposure of vessel walls leads to the formation of […] clot in the vessels. Therefore, prevention of the formation of blood clots has direct implication in the treatment of thrombosis and associated cardiovascular diseases.\n(§2) PAF and collagen were used at their maximal concentrations to which induced 100% aggregation of platelets."}, "[3]": {"test_system": "platelets", "test": "platelet aggregation in response to PAF", "type": "cell-based", "from_the_text": "as §1, §2"}, "[4]": {"test_system": "human basophils", "test": "histamine release from human basophils/leukocytes challenged with anti-human IgE", "type": "cell-based", "experimental": "A major test to confirm the anti-allergic property of contignasterols is the histamine release from human basophils. […] We used […] human blood leukocytes from allergic (allergy to grass pollen) individuals and prepared leukocytes. The leukocytes were then challenged with anti-human IgE for the release of histamine. The leukocytes were either exposed to 50 μg/ml of contignasterol or saline alone (control). The amount of histamine released from the leukocytes was measured using radioenzymatic assay."}, "[5]": {"test_system": "tracheal tissues", "test": "ovalbumin (OA)-induced contraction of tracheal tissues from sensitized guinea pigs", "type": "cell-based", "from_the_text": "We have used the contignasterol as defined in paragraph one of the Summary to block bronchoconstriction induced in guinea pigs. Guinea pigs were sensitized to ovalbumine (OA) that can serve as an antigen. The trachea from these animals after exposure to the antigen (OA) contracted in a similar manner as to in vivo situation."}, "[6]": {"test_system": "allergeninduced challenge", "test": "relative potencies of isomers of contignasterol against allergen-induced challenge", "settings": "for % Inhibition: allergen-induced challenge; for inhibition: concentration not given", "from_the_text": "Table 4 illustrates the relative potencies of different isomers of contignasterol against allergeninduced challenge."}}, "note": "Entries after “also recorded” stand apart in the source; their conditions may differ.", "data": [{"compound": "CC(C)C[C@]1(O)C[C@@H](C)[C@H]2[C@@H]1C(=O)[C@@H]1[C@@H]3[C@@H](O)[C@H](O)[C@H]4C[C@H](O)CC[C@]4(C)[C@H]3CC[C@]21C", "note": "[xestobergsterol A, 23S-16β, 23-cyclo-3α,6α,7β,23-tetrahydroxy-5α,14β-cholestan-15-one]", "values": [{"measurement": "inhibition of histamine release, in words", "setting": "[1]", "result": "potent inhibitors of histamine release"}]}, {"compound": "CC(C)C1CC(O)OC([C@@H](C)[C@H]2CC(=O)[C@@H]3[C@@H]4[C@@H](O)[C@H](O)[C@H]5[C@@H](O)[C@H](O)CC[C@]5(C)[C@H]4CC[C@]23C)C1", "note": "(stereo partly shown) [Compound 1, contignasterol]", "values": [{"measurement": "activity at 5 µg/mL", "setting": "[2]; Platelet, contignasterol 5 μg/ml, collagen at maximal concentration, read-out: Aggregation (% of Control), Collagen", "result": 70, "unit": "%"}, {"measurement": "activity at 30 µg/mL", "setting": "[2]; Platelet, contignasterol 30 μg/ml, collagen at maximal concentration, read-out: Aggregation (% of Control), Collagen", "result": 0, "unit": "%"}, {"measurement": "activity at 50 µg/mL", "setting": "[2]; Platelet, contignasterol 50 μg/ml, collagen at maximal concentration, read-out: Aggregation (% of Control), Collagen", "result": 0, "unit": "%"}, {"measurement": "inhibition of platelet aggregation caused by collagen, in words", "setting": "[2]; collagen", "result": "inhibited aggregation of platelets; also recorded: inhibits platelet aggregation"}, {"measurement": "inhibition of platelet aggregation caused by PAF, in words", "setting": "[3]; PAF", "result": "inhibited aggregation of platelets; also recorded: inhibits platelet aggregation"}, {"measurement": "activity at 5 µg/mL", "setting": "[3]; Platelet, contignasterol 5 μg/ml, PAF at maximal concentration, read-out: Aggregation (% of Control), PAF", "result": 90, "unit": "%"}, {"measurement": "activity at 10 µg/mL", "setting": "[3]; Platelet, contignasterol 10 μg/ml, PAF at maximal concentration, read-out: Aggregation (% of Control), PAF", "result": 56, "unit": "%"}, {"measurement": "activity at 20 µg/mL", "setting": "[3]; Platelet, contignasterol 20 μg/ml, PAF at maximal concentration, read-out: Aggregation (% of Control), PAF", "result": 44, "unit": "%"}, {"measurement": "activity at 30 µg/mL", "setting": "[3]; Platelet, contignasterol 30 μg/ml, PAF at maximal concentration, read-out: Aggregation (% of Control), PAF", "result": 28, "unit": "%"}, {"measurement": "activity at 50 µg/mL", "setting": "[3]; Platelet, contignasterol 50 μg/ml, PAF at maximal concentration, read-out: Aggregation (% of Control), PAF", "result": 0, "unit": "%"}, {"measurement": "inhibition of histamine release from human basophils, in words", "setting": "[4]; basophils present in the blood", "result": "inhibits histamine release"}, {"measurement": "Histamine Release (% of Total)", "setting": "[4]; contignasterol 50 μg/ml, challenge with anti-IgE, control (no drug) 36.4, basal release 9.8", "result": "19.0 % of Total"}, {"measurement": "Contraction (% of Maximal)", "setting": "[5]; contignasterol 1 μg/ml, ovalbumine 0.001 μg/ml, control 6.6", "result": "0.00 % of Maximal"}, {"measurement": "Contraction (% of Maximal)", "setting": "[5]; contignasterol 1 μg/ml, ovalbumine 0.01 μg/ml, control 12", "result": "-7.7 % of Maximal"}, {"measurement": "Contraction (% of Maximal)", "setting": "[5]; contignasterol 1 μg/ml, ovalbumine 0.1 μg/ml, control 28.6", "result": "-8.5 % of Maximal"}, {"measurement": "Contraction (% of Maximal)", "setting": "[5]; contignasterol 1 μg/ml, ovalbumine 1 μg/ml, control 34.0", "result": "27.5 % of Maximal"}, {"measurement": "Contraction (% of Maximal)", "setting": "[5]; contignasterol 1 μg/ml, ovalbumine 10 μg/ml, control 46.0", "result": "30 % of Maximal"}, {"measurement": "Contraction (% of Maximal)", "setting": "[5]; contignasterol 1 μg/ml, ovalbumine 100 μg/ml, control 55.7", "result": "39 % of Maximal"}, {"measurement": "Contraction (% of Maximal)", "setting": "[5]; contignasterol 1 μg/ml, ovalbumine 300 μg/ml, control 56", "result": "39.7 % of Maximal"}, {"measurement": "Contraction (% of Maximal)", "setting": "[5]; contignasterol 10 μg/ml, ovalbumine 0.001 μg/ml, control 6.6", "result": "0.00 % of Maximal"}, {"measurement": "Contraction (% of Maximal)", "setting": "[5]; contignasterol 10 μg/ml, ovalbumine 0.01 μg/ml, control 12", "result": "-8.0 % of Maximal"}, {"measurement": "Contraction (% of Maximal)", "setting": "[5]; contignasterol 10 μg/ml, ovalbumine 0.1 μg/ml, control 28.6", "result": "-8.0 % of Maximal"}, {"measurement": "Contraction (% of Maximal)", "setting": "[5]; contignasterol 10 μg/ml, ovalbumine 1 μg/ml, control 34.0", "result": "6.0 % of Maximal"}, {"measurement": "Contraction (% of Maximal)", "setting": "[5]; contignasterol 10 μg/ml, ovalbumine 10 μg/ml, control 46.0", "result": "16.0 % of Maximal"}, {"measurement": "Contraction (% of Maximal)", "setting": "[5]; contignasterol 10 μg/ml, ovalbumine 100 μg/ml, control 55.7", "result": "16.6 % of Maximal"}, {"measurement": "Contraction (% of Maximal)", "setting": "[5]; contignasterol 10 μg/ml, ovalbumine 300 μg/ml, control 56", "result": "29.6 % of Maximal"}, {"measurement": "Contraction (% of Maximal)", "setting": "[5]; contignasterol 50 μg/ml, ovalbumine 0.001 μg/ml, control 6.6", "result": "0.00 % of Maximal"}, {"measurement": "Contraction (% of Maximal)", "setting": "[5]; contignasterol 50 μg/ml, ovalbumine 0.01 μg/ml, control 12", "result": "0.0 % of Maximal"}, {"measurement": "Contraction (% of Maximal)", "setting": "[5]; contignasterol 50 μg/ml, ovalbumine 0.1 μg/ml, control 28.6", "result": "0.0 % of Maximal"}, {"measurement": "Contraction (% of Maximal)", "setting": "[5]; contignasterol 50 μg/ml, ovalbumine 1 μg/ml, control 34.0", "result": "5.5 % of Maximal"}, {"measurement": "Contraction (% of Maximal)", "setting": "[5]; contignasterol 50 μg/ml, ovalbumine 10 μg/ml, control 46.0", "result": "11.1 % of Maximal"}, {"measurement": "Contraction (% of Maximal)", "setting": "[5]; contignasterol 50 μg/ml, ovalbumine 100 μg/ml, control 55.7", "result": "16.6 % of Maximal"}, {"measurement": "Contraction (% of Maximal)", "setting": "[5]; contignasterol 50 μg/ml, ovalbumine 300 μg/ml, control 56", "result": "22 % of Maximal"}, {"measurement": "effect on antigen-induced tracheal/airway smooth muscle contraction, in words", "setting": "[5]; tissue pretreated, exposed to antigen (OA)", "result": "did not significantly contract; also recorded: inhibited airway smooth muscle contraction"}, {"measurement": "% Inhibition", "setting": "[6]; 10 μM", "result": 43, "unit": "%"}, {"measurement": "inhibition", "setting": "[6]", "result": 47, "unit": "%"}]}, {"compound": "CC(C)C[C@]1(O)C[C@@H](C)[C@H]2[C@@H]1C(=O)[C@@H]1[C@@H]3[C@@H](O)[C@H](O)[C@H]4C[C@H](O)[C@@H](O)[C@@H](O)[C@]4(C)[C@H]3CC[C@]21C", "note": "[xestobergsterol B, 23S-16β,23-cyclo-1β,2β,3α,6α,7β,23-hexahydroxy-5α,14β-cholestan-15-one]", "values": [{"measurement": "inhibition of histamine release, in words", "setting": "[1]", "result": "potent inhibitors of histamine release"}]}, {"compound": "COC1CC(C(C)C)CC([C@@H](C)[C@H]2CC(=O)[C@@H]3[C@@H]4[C@@H](O)[C@H](O)[C@H]5[C@@H](O)[C@H](O)CC[C@]5(C)[C@H]4CC[C@]23C)O1", "note": "(stereo partly shown) [Compound 3]", "values": [{"measurement": "% Inhibition", "setting": "[6]; 10 μM", "result": 12, "unit": "%"}, {"measurement": "change in potency on conversion of hemiacetal to methyl acetal, in words", "setting": "[6]; 10 μM, methyl acetal (3) versus contignasterol (1)", "result": "significant decrease in the potency"}, {"measurement": "inhibition", "setting": "[6]", "result": 12, "unit": "%"}]}, {"compound": "CC(C)C1CC(O)OC([C@@H](C)[C@H]2CC(=O)[C@H]3[C@@H]4[C@@H](O)[C@H](O)[C@H]5[C@@H](O)[C@H](O)CC[C@]5(C)[C@H]4CC[C@]23C)C1", "note": "(stereo partly shown) [Compound 2, 14-epicontignasterol]", "values": [{"measurement": "% Inhibition", "setting": "[6]; 10 μM", "result": 25, "unit": "%"}, {"measurement": "inhibition", "setting": "[6]", "result": 25, "unit": "%"}]}]}
